Values belong to the compound of their own block, whether it stands above or below them.
Tests used:
YAP [1] = target: T1, YAP (Homo sapiens, UniProt P46937); assay: YAP nuclear level / nuclear translocation in Huh-7 cells; type: cell-based; conditions: for nuclear transport of YAP: HCC cells (Huh-7), PRMT1 inhibitor MS023 200 nM or siPRMT1
Procedure: Huh-7 cells were infected with lenti-YAP-linker-EGFP-rtTA3 followed by infection with lenti-SOX9-linker-mCherry-rtTA3, with selection using puromycin (Sigma-Aldrich, P9620) or Blasticidin S hydrochloride (Yeasen,60218ES10), and then plated on confocal 6-well plates (Biosharp, BS-15-GJM) at a suitable concentration. Approximately 1 h after doxycycline (DOX, Yeasen, 60204ES03) treatment, live cell images were captured every 30 min using an Olympus SpinSR10 microscope at ×200 magnification. For the PLA, the pretreated cell samples were fixed after DOX induction for 12 h. DOX was administered to the infected Huh-7 cells at a concentration of 1 μg/mL.
(§1) Cytoplasmic and nuclear fractionation was accessed by the Minute^TM Cytoplasmic and Nuclear Fractionation kit (Invent, SC-003) following the manufacturer’s recommendations with some modifications made by us to optimize the protocol. Cells were resuspended in pre-chilled cytoplasm extraction buffer and incubated on ice for 5 min. After a thorough one-minute vortex, the supernatant (cytoplasmic proteins) was obtained by centrifuging at 12,000 rpm for 5 min. To eliminate cytoplasmic proteins, the pellet was washed with pre-chilled PBS, and subsequently resuspended in a nuclear extraction buffer. The sample was vortexed thoroughly for 3 min in an ice bath, and these steps were repeated four times. The precipitate was discarded, and the supernatant (nuclear proteins) was saved for further analysis.

YAP-TEAD = assay: 8×GTIIC YAP-TEAD luciferase reporter assay; type: cell-based
Procedure: Huh-7 cells were transfected with a vector expressing full-length or truncated SOX9 together with a TEAD4-related reporter plasmid, 8×GTIIC (RIKEN, Japan). The pRL-SV40 (Promega, E2261) vector was transfected into all the treated cells and was used to normalize the data. Luciferase reporter gene assays were assayed with the Dual-Luciferase Reporter Assay System (Promega, E2920). All experiments were replicated a minimum of three times.

SOX9 = SOX9 nuclear level in Huh-7 cells; type: cell-based; conditions: CDZ 5 nM, 24 h
Procedure: as §1

YAP-SOX9 interaction [2] = assay: Co-IP of SOX9-YAP interaction in cells; type: cell-based; conditions: V5-IP
Procedure: (§2) For protein preparation, cells were lysed in 2× sodium dodecyl sulfate (SDS) protein lysis buffer (4% SDS, 20% glycerol, 100 mM Tris-Cl [pH 6.8], with PMSF or other protease inhibitors). For co-immunoprecipitation (Co-IP), samples were prepared using Pierce^TM IP lysis buffer (Thermo Fisher Scientific, 87787) following the manufacturer's recommendations. Lysates were centrifuged at 12,000 rpm for 10 min, and the supernatants were collected. The protein concentration was determined using a BCA kit (Beyotime, P0010, Shanghai, China). For Co-IP samples, 1 mg of protein was precipitated with 20 μL of agarose-conjugated antibodies. For immunoblotting, protein samples were separated using SDS-polyacrylamide gel electrophoresis and then transferred onto nitrocellulose membranes (Millipore, HAHY00010).

YAP-SOX9 interaction [3] = assay: PLA of SOX9-YAP interaction in cells; type: cell-based; conditions: HCC cells (DOX-induced Huh-7), peptides 10 μM, 24 h
Procedure: The pretreated cell samples were grown on coverslips, fixed in 4% paraformaldehyde (PFA) for 15 minutes, and then washed two times in PBS. Following a 1-hour incubation at 37 °C with blocking solution® (Sigma-Aldrich, DUO82007), the cells were incubated with primary antibodies at optimal concentrations overnight at 4 °C. After three washes in Buffer A® (Sigma-Aldrich, DUO82049), the samples were incubated with a 1:5 dilution of PLUS® and MINUS® Duolink In Situ PLA Probe (Sigma-Aldrich, DUO92002 and DUO92004) for 1 hour at 37 °C. Three additional washes in Buffer A® preceded a 30-minute incubation with 1 unit/μL of T4 DNA ligase diluted in ligase buffer (1:5, Sigma-Aldrich, DUO92013) at 37 °C. Subsequently, cells were washed three times again in Buffer A® and treated with 5 units/μL of DNA polymerase in diluted polymerase buffer (1:5, Sigma-Aldrich, DUO92013) for 100 min at 37 °C. Finally, cells were washed twice for 10 minutes each in 1× Buffer B® (Sigma-Aldrich, DUO82049), then quickly washed for 1 min in 0.01× Buffer B®. The slides were mounted using DUOlink in situ mounting medium containing DAPI, and the images were captured using a Leica TCS SP8 confocal microscope.

CTGF, CYR61 and AREG = assay: qPCR of YAP-target genes in cells; type: cell-based; conditions: Huh-7 cells, 10 μM
Procedure: (§3) Total RNA was isolated from cells or tissues with RNAiso Plus Reagent (TaKaRa, 9108). SuperScript Ⅲ reverse transcriptase (Invitrogen,18080093) was employed to synthesize first-strand cDNA. Real-time PCR was performed in an ABI Step One Real-time Detection System (Life Technologies) using SYBR Green (Takara, RR420A). The primer sequences are listed in supplementary Table 2.

Hep3B cells = assay: Proliferation of HCC cells; type: cell-based
SOX9^KO Huh-7 cells = assay: Proliferation of SOX9KO Huh-7 cells; type: cell-based; conditions: SOX9^KO Huh-7 cells treated with Pep-peptides
Huh-7 xenograft = assay: Huh-7 subcutaneous xenograft model; type: in vivo, BALB/c nude mice
Procedure: (§4) Huh-7 cells (1×106) or Huh-7 cells infected with different viruses were injected subcutaneously into the right flank of male athymic BALB/c nude mice (5 weeks old). Tumor volumes were measured and analyzed using the equation: volume = π/6×length×(width)2.Once the average tumor volume reached approximately 60 mm3, the mice were randomly divided into five groups (eight mice per group) and treated with intratumorally injections of Pep-S-A1, Pep-D125A, or saline twice weekly. For the orthotopic HCC model, 1×10^6 Huh-7 cells expressing luciferase were injected subcutaneously into the right flank of BALB/c nude mice to establish tumor xenografts. The tumor nodules derived from xenograft model and then were divided into 1 mm3 pieces and subsequently implanted into the left lobe of the livers of 5-week-old male BALB/c nude mice to mimic primary HCC. The mice were randomly separated into two groups (eight animals per group) according to the bioluminescence 3 days after implantation. Pep-S-A1 or Pep-D125A was then injected via the tail vein every 5 days. The mice were regularly monitored using a luminal imaging system (Caliper) once each week and killed 2 weeks post tumor fragments transplanted.

[4] = system: luciferase-expressing Huh-7 tumors; assay: Orthotopic HCC model; type: in vivo, BALB/c nude mice; conditions: 2-week delivery
Procedure: as §4

HCC cells = assay: Proliferation of Huh-7 / HCC cells; type: cell-based
SOX9-HMG domain = target: T2, SOX9-HMG domain (Homo sapiens, UniProt P48436); assay: MST binding to SOX9-HMG domain; conditions: 50 mM Tris-HCl pH 7.4, 150 mM NaCl, 0.05% Tween-20, effect of R124K mutation on YAP peptide (aa 115–135)
T2 construct: made in house; host or cells: Escherichia coli
T2 sequence (P48436 98-181): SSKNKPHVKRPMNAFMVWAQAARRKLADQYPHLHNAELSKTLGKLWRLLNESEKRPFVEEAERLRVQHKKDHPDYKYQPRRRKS
Procedure: (§5) His-tagged YAP and the SOX9-HMG domain purified from Escherichia coli were labeled with 25 nM RED-tris-NTA 2nd Generation dye at room temperature for 10 min. Then, the labeled protein was incubated with a serially diluted peptide or protein for 10 min at room temperature. MST buffer containing 50 mM Tris-HCl [pH 7.4], 150 mM NaCl, and 0.05% Tween-20 was used in all measurements. The solution was centrifuged for 10 min at 4 °C and 15,000 g, and the supernatant was transferred to a fresh tube. The sample was loaded into the capillaries and measured at 40% LED/excitation power and medium MST power. The KD was determined in MO. Affinity Analysis using the KD fit.

YAP [5] = target: T1, YAP; assay: MST binding to YAP protein; set-up: made in house; host or cells: Escherichia coli; conditions: 50 mM Tris-HCl pH 7.4, 150 mM NaCl, 0.05% Tween-20, effect of D125A mutation on S-A1 binding
Procedure: as §5

YAP-R124me2a = YAP-R124me2a level in cells (immunoblot); type: cell-based; conditions: Huh-7 cells co-transfected with V5-YAP and siPRMT1
Procedure: as §2

Huh-7 cells = assay: TEAD activity and oncogenic properties of Huh-7 cells; type: cell-based; conditions: Huh-7 cells treated with Lenti-YAP and siPrmt1 simultaneously
PLC cells = assay: YAP-induced gene expression and malignant features of PLC cells; type: cell-based; conditions: PLC cells infected with lenti-YAP; siRNA 20 nmol/L
Procedure: as §3

YAP-TEAD interaction = conditions: cited from earlier work
Description: (§6) The formation of YAP-partner complexes under certain pathological conditions makes YAP an ideal drug target.[44]–[46] […] In light of this, impeding ...

ovarian cancer = conditions: cited from earlier work
Description: as §6

T1 sequence (P46937 whole entry): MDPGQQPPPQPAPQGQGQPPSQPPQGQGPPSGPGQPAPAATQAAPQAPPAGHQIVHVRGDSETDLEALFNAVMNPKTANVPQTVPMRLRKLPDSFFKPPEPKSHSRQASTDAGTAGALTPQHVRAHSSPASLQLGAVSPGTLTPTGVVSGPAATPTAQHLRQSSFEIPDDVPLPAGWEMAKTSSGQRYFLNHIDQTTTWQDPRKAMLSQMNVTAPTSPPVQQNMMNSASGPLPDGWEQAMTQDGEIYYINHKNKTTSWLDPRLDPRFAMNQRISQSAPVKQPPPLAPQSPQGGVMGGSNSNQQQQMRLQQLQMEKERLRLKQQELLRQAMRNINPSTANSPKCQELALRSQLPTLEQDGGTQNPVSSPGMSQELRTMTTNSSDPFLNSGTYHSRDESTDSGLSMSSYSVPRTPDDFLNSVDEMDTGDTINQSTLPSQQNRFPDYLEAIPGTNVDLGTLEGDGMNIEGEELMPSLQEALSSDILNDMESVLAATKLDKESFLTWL

Compound: Clc1ccc(C(c2ccc(Cl)cc2)n2cc[n+](CC(OCc3ccc(Cl)cc3Cl)c3ccc(Cl)cc3Cl)c2)cc1 (centres unmarked) [CDZ, calmidazolium chloride]
nuclear translocation of YAP (YAP [1]; CDZ 5 nM, 24 h, Huh-7 cells transfected with V5-YAP, fractionation and immunoblot): significantly inhibited nuclear translocation of YAP
transactivation of the YAP-TEAD reporter (YAP-TEAD; CDZ 5 nM, 24 h, Huh-7 cells overexpressing YAP or YAP^S127A, 8×GTIIC reporter): significantly inhibited nuclear translocation of YAP and the transactivation of the YAP-TEAD reporter
nuclear level of SOX9 (SOX9): decreased the nuclear level of SOX9

Compound: CC(C)Oc1ccc(-c2c[nH]cc2CN(C)CCN)cc1 [MS023]
nuclear transport of YAP (YAP [1]; fractionation and immunoblot): remarkedly blocked the nuclear transport of YAP in HCC cells

nuclear YAP levels (YAP [1]; Huh-7 cells, live cell-imaging): reduced nuclear YAP levels
YAP-TEAD activity (YAP-TEAD; Huh-7 cells, 8×GTIIC reporter, 10 μM): suppressed YAP-TEAD activity
Compound: Pep-S-A1: S-A1 linked to a cell-penetrating peptide (Pep) via a di-glycine linker (HLYVSPWGGAFMVWAQAARRKLADQ)
disruption of YAP-SOX9 interaction (Co-IP) (YAP-SOX9 interaction [2]; HCC cells (Huh-7), peptides at indicated concentrations for 24 h): disrupted the YAP-SOX9 interaction in HCC cells in a dose-dependent manner
disruption of YAP-SOX9 interaction (PLA) (YAP-SOX9 interaction [3]): disrupted the YAP-SOX9 interaction in HCC cells in a dose-dependent manner
YAP-target gene expression (CTGF, CYR61 and AREG): inhibited YAP-target gene expression
proliferation of Hep3B cells (Hep3B cells): inhibited the proliferation of Hep3B cells
proliferation of SOX9KO Huh-7 cells (SOX9^KO Huh-7 cells): had no effect on SOX9^KO Huh-7 cells
YAP nuclear staining in tumor tissues (Huh-7 xenograft; Huh-7 xenograft, IHC, 8 mg/kg): reduced YAP nuclear staining
downstream gene transcription in tumor tissues (Huh-7 xenograft; Huh-7 xenograft, qPCR of CTGF, CYR61 and AREG): reduced YAP nuclear staining and downstream gene transcription in the tumor tissues
tumor growth (Huh-7 subcutaneous xenograft) (Huh-7 xenograft; nude mice, intratumoral injection, twice weekly (day 1 and day 4), eight mice per group): dose-dependently suppressed tumor growth
YAP nuclear aggregation in tumor tissues ([4]; orthotopic HCC, IHC, tail vein every 5 days): notably inhibited YAP nuclear aggregation
downstream gene expression in tumor tissues ([4]; orthotopic HCC, qPCR of CTGF, CYR61 and AREG): notably inhibited YAP nuclear aggregation and downstream gene expression in the tumor tissues
emitted bioluminescence ([4]; orthotopic HCC, tail vein every 5 days, compared with Pep-D125A, eight animals per group): significantly reduced the emitted bioluminescence
tumor growth (orthotopic HCC) ([4]; tail vein every 5 days, compared with Pep-D125A, eight animals per group): significantly reduced the emitted bioluminescence and tumor growth compared with Pep-D125A
HCC cell proliferation (HCC cells): inhibited HCC cell proliferation

binding to SOX9-HMG (MST) (SOX9-HMG domain): abolished
Compound: R124K: YAP peptide (aa 115–135) with R124K mutation (AGALTPQHVKAHSSPASLQLG; UniProt P46937 115-135, looked up, variant R124K)

binding to YAP (MST) (YAP [5]): abolished this binding
Compound: S-A1-D125A: S-A1 peptide with D125A mutation (AFMVWAQAARRKLAAQ)

Compound: siPRMT1: siRNA GAGUUCACACGCUGCCACAtt (guide GAGUUCACACGCUGCCACATT; chemistry not given here)
YAP-SOX9 interaction (YAP-SOX9 interaction [2]; Huh-7 cells co-transfected with V5-YAP and siPRMT1): reduced YAP-SOX9 interaction
nuclear transport of YAP (YAP [1]; fractionation and immunoblot): remarkedly blocked the nuclear transport of YAP in HCC cells
YAP activity (8×GTIIC reporter) (YAP-TEAD; Huh-7 cells transfected with siPRMT1): decreased YAP activity
YAP-R124me2a level (YAP-R124me2a): decreased the YAP-R124me2a level
TEAD activity and oncogenic properties triggered by YAP (Huh-7 cells): significantly reversed the elevated TEAD activity and oncogenic properties of Huh-7 cells triggered by YAP

Compound: siSOX9: siRNA CCACCUUCACCUACAUGAAtt (guide CCACCUUCACCUACAUGAATT; chemistry not given here)
YAP-induced gene expression and malignant features (PLC cells): notably attenuate the YAP-induced gene expression and malignant features of PLC cells

Compound: verteporfin
YAP-TEAD interaction (YAP-TEAD interaction): blocked the YAP-TEAD interaction
ovarian cancer growth in mice (ovarian cancer): suppressed ovarian cancer growth in mice

Source: PMC11039692, “SRY-Box transcription factor 9 triggers YAP nuclear entry via direct interaction in tumors” (Signal Transduction and Targeted Therapy, 2024)
